Experimental data published in patent publication US9464084B2, “P2X7 modulators” (Janssen Pharmaceutica NV, priority 2013, dated 2016).

biological target: P2X7 (Homo sapiens (Human), UniProt Q99572); experiment: P2X7 antagonism in human PBMCs (LPS + Bz-ATP induced IL-1β release, ELISA); type: cell-based; conditions: compound 1 μM, LPS 30 ng/ml, Bz-ATP 0.5 mM;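 further: PBMCs from donor human blood, with a further 1.5 h incubation of the cells in the assay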
Sequence (Q99572 whole entry): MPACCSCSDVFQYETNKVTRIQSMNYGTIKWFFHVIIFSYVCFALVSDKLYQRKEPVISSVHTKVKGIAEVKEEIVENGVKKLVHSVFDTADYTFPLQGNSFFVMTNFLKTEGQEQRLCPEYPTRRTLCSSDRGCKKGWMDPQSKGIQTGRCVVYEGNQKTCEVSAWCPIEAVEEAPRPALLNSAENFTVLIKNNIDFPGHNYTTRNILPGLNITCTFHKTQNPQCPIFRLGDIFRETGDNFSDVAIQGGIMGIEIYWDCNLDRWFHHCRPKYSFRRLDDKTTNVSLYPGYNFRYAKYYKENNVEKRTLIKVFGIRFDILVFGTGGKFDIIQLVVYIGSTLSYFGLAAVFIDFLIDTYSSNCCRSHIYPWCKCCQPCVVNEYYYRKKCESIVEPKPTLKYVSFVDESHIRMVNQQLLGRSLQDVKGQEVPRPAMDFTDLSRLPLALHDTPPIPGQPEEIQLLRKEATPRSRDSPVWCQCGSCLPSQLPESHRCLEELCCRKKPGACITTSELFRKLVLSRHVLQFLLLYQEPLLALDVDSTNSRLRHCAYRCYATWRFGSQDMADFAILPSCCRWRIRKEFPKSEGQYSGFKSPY
Procedure: Human blood was collected using a blood donor program. PBMCs were isolated from blood using a Ficoll density gradient technique. Briefly, blood was laid on Ficoll solution and centrifuged at RT for 20 minutes at 2000 rpm. The buffy layer (between red blood cells and plasma) was carefully collected by aspiration, washed with PBS and centrifuged again at 1500 rpm for 15 minutes. The resulting cell pellet was washed and plated on 96 well-plates for experiments. For the Mouse/Human Whole Blood experiments, 150 μl of either mouse or human blood was platted on 96 well-plates. Lipopolysaccharide (LPS) (30 ng/ml) was added to each well and incubated for 1 hour. Test compounds were then added and incubated for 30 minutes. The P2X7 agonist, 2′(3′)-O-(4-benzoylbenzoyl) adenosine 5′ triphosphate (Bz-ATP) was then added at a final concentration of 0.5 mM (PBMC) or 1 mM (blood). Cells were incubated for an additional 1.5 hours. At that point, supernatant was collected and stored for IL-1β assay using manufacturer's protocol for enzyme-linked immunosorbent assay (ELISA). Data was expressed as percent control, where control is defined as the difference in IL-1β release in LPS+Bz-ATP samples and LPS only samples. Data was plotted as response (% control) versus concentration to generate IC50 values.

| SMILES | PBMC 1 μM (% control) |
| --- | --- |
| O=C(c1ccc(F)cc1Cl)N1CCc2c(-c3ccccc3)n[nH]c2C1 [Example 323, (2-chloro-4-fluorophenyl)(3-phenyl-4,5-dihydro-1H-pyrazolo[3,4-c]pyridin-6(7H)-yl)methanone] | 102.4 % control |
| Cn1nc2c(c1-c1ccc(F)cc1)CCN(C(=O)c1cccc(C(F)(F)F)c1Cl)C2 [Example 105, 6-{[2-Chloro-3-(trifluoromethyl)phenyl]carbonyl}-3-(4-fluorophenyl)-2-methyl-4,5,6,7-tetrahydro-2H-pyrazolo[3,4-c]pyridine] | 51.0 % control |
| O=C(c1cccc2c1OCC2)N1CCc2c(ncn2-c2ccccc2)C1 [Example 51, 5-(2,3-Dihydro-1-benzofuran-7-ylcarbonyl)-1-phenyl-4,5,6,7-tetrahydro-1H-imidazo[4,5-c]pyridine] | 97.6 % control |
| COc1ccccc1-n1nnc2c1CCN(C(=O)c1cccc(C(F)(F)F)c1F)C2 [Example 124, (2-Fluoro-3-(trifluoromethyl)phenyl)(1-(2-methoxyphenyl)-6,7-dihydro-1H-[1,2,3]triazolo[4,5-c]pyridin-5(4H)-yl)methanone] | 94.7 % control |
| O=C(c1cccc(C(F)(F)F)c1Cl)N1CCc2nc[nH]c2C1 [Example 48, 5-{[2-Chloro-3-(trifluoromethyl)phenyl]carbonyl}-4,5,6,7-tetrahydro-3H-imidazo[4,5-c]pyridine] | 90.1 % control |

Results, then the compound that gave them:

| PBMC 1 μM (% control) | SMILES |
| --- | --- |
| 4.3 % control | CC1c2nnn(-c3cnccn3)c2CCN1C(=O)c1cccc(C(F)(F)F)c1Cl (stereo not drawn) [Example 73, 5-{[2-Chloro-3-(trifluoromethyl)phenyl]carbonyl}-4-methyl-1-pyrazin-2-yl-4,5,6,7-tetrahydro-1H-[1,2,3]triazolo[4,5-c]pyridine] |
| 23.0 % control | O=C(c1cccc(Cl)c1Cl)N1CCc2c(ncn2-c2ccccc2)C1 [Example 3, (2,3-Dichlorophenyl)(1-phenyl-6,7-dihydro-1H-imidazo[4,5-c]pyridin-5(4H)-yl)methanone] |
| 100.7 % control | O=C(O)C1c2ncn(-c3ccccn3)c2CCN1C(=O)c1cccc(C(F)(F)F)c1Cl (stereo not drawn) [Example 33, 5-{[2-Chloro-3-(trifluoromethyl)phenyl]carbonyl}-1-pyridin-2-yl-4,5,6,7-tetrahydro-1H-imidazo[4,5-c]pyridine-4-carboxylic acid] |
| 93.5 % control | O=C(c1cccc(C(F)(F)F)c1Cl)N1C=Cc2c(ncn2-c2ccccc2)C1 [Example 49, 5-{[2-Chloro-3-(trifluoromethyl)phenyl]carbonyl}-1-phenyl-4,5-dihydro-1H-imidazo[4,5-c]pyridine] |
| 11.2 % control | CC1c2ncn(-c3ccccc3)c2CCN1C(=O)c1cccc(C(F)(F)F)c1Cl (stereo not drawn) [Example 12, (2-Chloro-3-(trifluoromethyl)phenyl)(4-methyl-1-phenyl-6,7-dihydro-1H-imidazo[4,5-c]pyridin-5(4H)-yl)methanone] |

same assay, conditions: compound 10 μM, LPS 30 ng/ml, Bz-ATP 0.5 mM

| SMILES | PBMC 10 μM (% control) |
| --- | --- |
| C[C@H]1c2nnn(-c3ncccn3)c2CCN1C(=O)c1cccc(C(F)(F)F)c1F (single isomer, unassigned) [Example 270, (S*)-(2-fluoro-3-(trifluoromethyl)phenyl)(4-methyl-1-(pyrimidin-2-yl)-6,7-dihydro-1H-[1,2,3]triazolo[4,5-c]pyridin-5(4H)-yl)methanone] | 98.5 % control |
| O=C(c1cccc(C(F)(F)F)c1Cl)N1CCc2c(nnn2-c2ncccn2)C1 [Example 65, 5-{[2-Chloro-3-(trifluoromethyl)phenyl]carbonyl}-1-pyrimidin-2-yl-4,5,6,7-tetrahydro-1H-[1,2,3]triazolo[4,5-c]pyridine] | 5.8 % control |
| C[C@@H]1Cc2c(nnn2-c2ccn[nH]2)[C@H](C)N1C(=O)c1cccc(C(F)(F)F)c1Cl [Example 309, (2-chloro-3-(trifluoromethyl)phenyl)((4S,6R)-4,6-dimethyl-1-(1H-pyrazol-5-yl)-6,7-dihydro-1H-[1,2,3]triazolo[4,5-c]pyridin-5(4H)-yl)methanone] | 1.4 % control |
| C[C@@H]1c2ncn(-c3ccccn3)c2CCN1C(=O)c1cccc(C(F)(F)F)c1F (single isomer, unassigned) [Example 42, (4R*)-5-{[2-Fluoro-3-(trifluoromethyl)phenyl]carbonyl}-4-methyl-1-pyridin-2-yl-4,5,6,7-tetrahydro-1H-imidazo[4,5-c]pyridine] | 5.8 % control |
| C[C@H]1Cc2c(nnn2-c2ncc(F)cn2)CN1C(=O)c1cccc(C(F)(F)F)c1Cl (single isomer, unassigned) [Example 202, (6S*)-5-{[2-Chloro-3-(trifluoromethyl)phenyl]carbonyl}-1-(5-fluoropyrimidin-2-yl)-6-methyl-4,5,6,7-tetrahydro-1H-[1,2,3]triazolo[4,5-c]pyridine] | 24.1 % control |

Continued, values first:

| PBMC 10 μM (% control) | SMILES |
| --- | --- |
| 95.0 % control | C[C@@H]1c2nnn(-c3ccn(C)n3)c2CCN1C(=O)c1cccc(C(F)(F)F)c1Cl (single isomer, unassigned) [Example 169, (R*)-(2-Chloro-3-(trifluoromethyl)phenyl)(4-methyl-1-(1-methyl-1H-pyrazol-3-yl)-6,7-dihydro-1H-[1,2,3]triazolo[4,5-c]pyridin-5(4H)-yl)methanone] |
| −1.4 % control | C[C@H]1c2nnn(-c3ncc(F)cn3)c2CCN1C(=O)c1cccc(C(F)(F)F)c1Cl (single isomer, unassigned) [Example 157, (S*)-(2-Chloro-3-(trifluoromethyl)phenyl)(1-(5-fluoropyrimidin-2-yl)-4-methyl-6,7-dihydro-1H-[1,2,3]triazolo[4,5-c]pyridin-5(4H)-yl)methanone] |
| 19.5 % control | COc1ccnc(-n2nnc3c2CCN(C(=O)c2cccc(C(F)(F)F)c2Cl)[C@H]3C)c1 (single isomer, unassigned) [Example 151, (R*)-(2-Chloro-3-(trifluoromethyl)phenyl)(1-(4-methoxypyridin-2-yl)-4-methyl-6,7-dihydro-1H-[1,2,3]triazolo[4,5-c]pyridin-5(4H)-yl)methanone] |
| 12.3 % control | C[C@H]1c2nnn(-c3ccn[nH]3)c2CCN1C(=O)c1cccc(C(F)(F)F)c1Cl (single isomer, unassigned) [Example 134, (S*)-(2-Chloro-3-(trifluoromethyl)phenyl)(4-methyl-1-(1H-pyrazol-5-yl)-6,7-dihydro-1H-[1,2,3]triazolo[4,5-c]pyridin-5(4H)-yl)methanone] |
| 103.3 % control | C[C@H]1c2n[nH]c(-c3ncc(F)cn3)c2CCN1C(=O)c1cccc(C(F)(F)F)c1Cl (single isomer, unassigned) [Example 224, (S*)-(2-chloro-3-(trifluoromethyl)phenyl)(3-(5-fluoropyrimidin-2-yl)-7-methyl-4,5-dihydro-2H-pyrazolo[3,4-c]pyridin-6(7H)-yl)methanone] |
| 2.1 % control | Cc1c(C(=O)N2CCc3c(nnn3-c3ncccn3)[C@@H]2C)cccc1C(F)(F)F (single isomer, unassigned) [Example 197, (S*)-(4-methyl-1-(pyrimidin-2-yl)-6,7-dihydro-1H-[1,2,3]triazolo[4,5-c]pyridin-5(4H)-yl)(2-methyl-3-(trifluoromethyl)phenyl)methanone] |
